The source of these data is ChEMBL document CHEMBL1201862, “PubChem BioAssay data set” (2004).

Test systems include SK-MEL-2; MOLT-4; EKVX; NCI-H522; HCT-15; SF-539; NCI-H460; IGROV-1; OVCAR-8; U-251; SN12C; KM12; HL-60; Malme-3M; SR; A498; OVCAR-5; RPMI-8226; SK-MEL-28; LOX IMVI.
What all share (test): NCI tumour cell line growth inhibition, 48 h

Structures are written as SMILES.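 Exposure lasted 48 hours, with cells grown in 96-well plates and compounds tested at five concentrations. Abbreviation: GI50, concentration required for 50% inhibition of growth.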 Active and inactive are the calls of the source. No stated cut-off is given here; in the data, active = GI50 up to about 1.1 µM and inactive = higher.

`O=S(=O)(O)c1ccc2cccc(/N=N\c3c(O)ccc4ccccc34)c2c1`: the GI50 in the assay with SK-MEL-2 is > 100 µM (inactive); with MOLT-4, > 100 µM (inactive); with EKVX, > 100 µM (inactive); with NCI-H522, > 100 µM (inactive); with HCT-15, above 100 µM; in the assay on SF-539, > 100 µM (inactive). The GI50 in the assay on NCI-H460, with IGROV-1, in the assay with OVCAR-8, in the assay with U-251, in the assay with SN12C and in the assay with KM12 was > 100 µM (inactive) each time. Moreover, the GI50 in the assay on HL-60, with Malme-3M, in the assay on SR, in the assay with A498 and with OVCAR-5 was > 100 µM (inactive) throughout.
Regarding `S=C1SC(=N\c2ccccc2)/C(=N/c2ccccc2)N1c1ccccc1`, the GI50 in the assay on RPMI-8226 was 31.3 µM (inactive); in the assay with SK-MEL-2, > 100 µM (inactive); in the assay on MOLT-4, > 100 µM (inactive); with NCI-H522, > 100 µM (inactive); with HCT-15, above 100 µM; with NCI-H460, > 100 µM (inactive). Moreover, the GI50 in the assay with IGROV-1 is > 100 µM (inactive); in the assay on OVCAR-8 it was 93.8 µM (inactive); in the assay with U-251, 90.8 µM (inactive); in the assay on SN12C, > 100 µM (inactive); in the assay on SK-MEL-28, > 100 µM (inactive); in the assay on KM12 it was > 100 µM (inactive). The GI50 with HL-60 was > 10 µM (inactive); in the assay with Malme-3M, 45.9 µM (inactive); with SR it was > 100 µM (inactive); in the assay with A498, > 100 µM (inactive); in the assay on OVCAR-5, > 100 µM (inactive).
As to `CC1OC(O)CC(OC(=O)c2ccccc2)C1OC(=O)c1ccccc1` (configuration not stated), the GI50 was 8.18 µM (inactive) in the assay on RPMI-8226; 13.9 µM (inactive) in the assay with MOLT-4; > 100 µM (inactive) with NCI-H522; 15.3 µM with HCT-15; 11.1 µM (inactive) in the assay with LOX IMVI; 17.5 µM (inactive) with SF-539. Further, the GI50 is 49.4 µM (inactive) with NCI-H460; 12.4 µM (inactive) with IGROV-1; 15.7 µM (inactive) in the assay on OVCAR-8; 30.1 µM (inactive) in the assay with U-251; 17.3 µM (inactive) in the assay on SN12C; 16.1 µM (inactive) in the assay with SK-MEL-28. Further, the GI50 with KM12 is 39.6 µM (inactive); in the assay with HL-60, 13.6 µM (inactive); in the assay with Malme-3M, 16.6 µM (inactive); with SR it was 13.2 µM (inactive); in the assay with A498 it was > 100 µM (inactive); in the assay on OVCAR-5, > 100 µM (inactive).
As for `CC1(C)[C@@H]2C[C@H]1C(Cc1ccccc1C[C@H]1c3cc(-c4ccccn4)ncc3[C@H]3C[C@@H]1C3(C)C)c1cc(-c3ccccn3)ncc12` (some centres not stated), the GI50 with RPMI-8226 was 0.348 µM (active); in the assay on MOLT-4 it was 0.236 µM (active); in the assay with EKVX it was 0.461 µM (active); in the assay on NCI-H522, 0.448 µM (active); in the assay on HCT-15 it was 0.41 µM; in the assay with LOX IMVI, 0.361 µM (active). Also, the GI50 with SF-539 was 0.577 µM (active); in the assay with NCI-H460 it was 0.337 µM (active); in the assay on IGROV-1, 0.274 µM (active); in the assay with OVCAR-8 it was 0.378 µM (active); with U-251 it was 0.324 µM (active); in the assay on SN12C, 0.479 µM (active). For the same compound, the GI50 with SK-MEL-28 was 0.527 µM (active); in the assay with KM12 it was 0.389 µM (active); in the assay on HL-60 it was 0.232 µM (active); with Malme-3M, 0.678 µM (active); in the assay with SR it was 0.153 µM (active); with A498 it was 0.673 µM (active). Further, the GI50 in the assay on OVCAR-5 is 0.791 µM (active).
With `Nc1cc2[nH]c(=O)c3cc(Cl)ccc3c2cc1Cl`, the GI50 with RPMI-8226 was 0.514 µM (active); in the assay with SK-MEL-2 it was 25 µM (inactive); in the assay on MOLT-4 it was 4.11 µM (inactive); in the assay with EKVX, 2.52 µM (inactive); in the assay with NCI-H522 it was 13.4 µM (inactive); with HCT-15 it was 8.17 µM. In addition, the GI50 was 11.1 µM (inactive) in the assay on LOX IMVI; 12.2 µM (inactive) in the assay with SF-539; 5 µM (inactive) with NCI-H460; 4.07 µM (inactive) with IGROV-1; 3 µM (inactive) in the assay with OVCAR-8; 10.9 µM (inactive) in the assay on U-251. Further, the GI50 with SN12C is 10.2 µM (inactive); with SK-MEL-28, 60.4 µM (inactive); in the assay with KM12 it was 15.1 µM (inactive); with HL-60 it was 32.4 µM (inactive); in the assay on Malme-3M, 14.7 µM (inactive); in the assay on SR, 2.44 µM (inactive). Moreover, in the assay with OVCAR-5, the GI50 is 15.6 µM (inactive).
With `O=CCCn1[nH]c(=O)ccc1=O`, the GI50 is > 100 µM (inactive) in the assay on RPMI-8226; > 100 µM (inactive) with SK-MEL-2; > 100 µM (inactive) with MOLT-4; > 100 µM (inactive) in the assay on EKVX; above 100 µM in the assay on HCT-15; > 100 µM (inactive) in the assay with LOX IMVI. The GI50 with SF-539, in the assay with NCI-H460, in the assay on IGROV-1, in the assay on OVCAR-8, in the assay with U-251 and in the assay with SN12C was > 100 µM (inactive) throughout. Further, the GI50 with SK-MEL-28, in the assay on HL-60, in the assay on Malme-3M, in the assay on SR, in the assay with A498 and in the assay on OVCAR-5 was > 100 µM (inactive) throughout.
Consider `O=C(O)C(Cc1ccc(O)cn1)NC(=O)C(F)(F)F` (configuration not stated), for which the GI50 was > 100 µM (inactive) in the assay on RPMI-8226; > 100 µM (inactive) with EKVX; > 100 µM (inactive) with NCI-H522; above 100 µM in the assay on HCT-15; > 100 µM (inactive) with LOX IMVI; > 100 µM (inactive) in the assay on SF-539. Also, the GI50 with NCI-H460, in the assay on IGROV-1, in the assay with OVCAR-8, in the assay on U-251, with SN12C and in the assay with SK-MEL-28 was > 100 µM (inactive) in each case. Further, the GI50 with KM12, with HL-60, in the assay with Malme-3M, in the assay on SR, with A498 and in the assay on OVCAR-5 was > 100 µM (inactive) throughout.
`CCOC(=O)NC(=O)c1cn(CC(=O)NCC(=O)NCC(=O)N2CCN(CCn3c(C)nc(C(N)=O)c3N)CC2)c(=O)[nH]c1=O`: the GI50 was > 100 µM (inactive) in the assay on SK-MEL-2; > 100 µM (inactive) in the assay on MOLT-4; above 100 µM in the assay with HCT-15; > 100 µM (inactive) in the assay on LOX IMVI; > 100 µM (inactive) in the assay on SF-539; > 100 µM (inactive) in the assay with NCI-H460. The GI50 in the assay on IGROV-1, in the assay with OVCAR-8, with U-251, in the assay with SN12C, with SK-MEL-28 and in the assay on KM12 was > 100 µM (inactive) throughout. In addition, the GI50 in the assay on HL-60, in the assay on Malme-3M, with SR and in the assay with A498 was > 100 µM (inactive) each time.
